US10966427B2, “3-pyridyl oxyanilide compound and use therefor” (SUMITOMO CHEMICAL COMPANY, LIMITED, priority 2017, dated 2021)

Key:
Type in all cases: in vivo
soybean = assay: Test Examples 4 and 5, Comparative Example 1: foliar spray phytotoxicity against useful plants; conditions: second to third leaf stages, sprayed, 63 g/ha; for Phytotoxicity against Soybean: greenhouse 16 days
Method: Here “untreated group” represents a group where a similar treatment procedure to that of the treated group except not using the test compound is done. One point one nine (1.19) mg of the present compound was dissolved 1 mL of a DMF solution containing 2% polyoxyethylene sorbitan monolaurate, and then 18 mL of water was added thereto. The mixture was sprayed uniformly to soybean in the second to third leaf stages so that the applied dose was made 63 g/ha. Thereafter, the plants were cultivated in a greenhouse for 7 days, and the phytotoxicity against useful plants was assessed. […] Also, 1.19 mg of the present compound was dissolved 1 mL of a DMF solution containing 2% polyoxyethylene sorbitan monolaurate, and then 18 mL of water was added thereto. The mixture was sprayed uniformly to soybean in the second to third leaf stages so that the applied dose was made 63 g/ha. Thereafter, the plants were cultivated in a greenhouse for 16 days, and the phytotoxicity against useful plants was assessed. The test was conducted similarly to the method described in Test Example 5 except for using a compound represented by the following formula (A): […]

Digitaria ciliaris = assay: Test Examples 2 and 5, Comparative Example 1: foliar spray herbicide efficacy; conditions: second to third leaf stages, sprayed, 63 g/ha; for Herbicide efficacy against digitaria ciliaris: greenhouse 16 days
Method: Here “untreated group” represents a group where a similar treatment procedure to that of the treated group except not using the test compound is done. One point one nine (1.19) mg of the present compound was dissolved 1 mL of a DMF solution containing 2% polyoxyethylene sorbitan monolaurate, and then 18 mL of water was added thereto. The mixture was sprayed uniformly to Digitaria ciliaris in the second to third leaf stages so that the applied dose was made 63 g/ha. Thereafter, the plants were cultivated in a greenhouse for 7 days, and the herbicide efficacy was assessed. […] One point one nine (1.19) mg of the present compound was dissolved 1 mL of a DMF solution containing 2% polyoxyethylene sorbitan monolaurate, and then 18 mL of water was added thereto. The mixture was sprayed uniformly to Digitaria ciliaris in the second to third leaf stages so that the applied dose was made 63 g/ha. Thereafter, the plants were cultivated in a greenhouse for 16 days, and the herbicide efficacy was assessed. The test was conducted similarly to the method described in Test Example 5 except for using a compound represented by the following formula (A): […]

Echinochloa crus-galli = assay: Test Example 1: foliar spray herbicide efficacy; conditions: second to third leaf stages, sprayed, 63 g/ha, greenhouse for days (number not given)
Method: Here “untreated group” represents a group where a similar treatment procedure to that of the treated group except not using the test compound is done. One point one nine (1.19) mg of the present compound was dissolved 1 mL of a DMF solution containing 2% polyoxyethylene sorbitan monolaurate, and then 18 mL of water was added thereto. The mixture was sprayed uniformly to Echinochloa crus-galli in the second to third leaf stages so that the applied dose was made 63 g/ha. Thereafter, the plants were cultivated in a greenhouse for days, and the herbicide efficacy was assessed.

Leptochloa chinensis = assay: Test Example 3: pot spray followed by flooding, herbicide efficacy; conditions: first leaf stage, pot sprayed, 250 g/ha, flooded to 3 cm next day, greenhouse 20 days
Method: Here “untreated group” represents a group where a similar treatment procedure to that of the treated group except not using the test compound is done. Leptochloa chinensis seeds were seeded into a pot having a diameter of 9 cm and a death of 10 cm that was filled with steam-sterilized soil, and the plants were cultivated in a greenhouse until an emergence of the first leaf stage. Next, 4.75 mg of the present compound was dissolved into a 1 mL of DMF solution containing 2% polyoxyethylene sorbitan monolaurate, and then 18 mL of water was added thereto. The mixture was sprayed uniformly to the pot so that the applied dose was made 250 g/ha. After the pot was flooded to a depth of 3 cm on next day, the plants were cultivated in a greenhouse for 20 days, and the herbicide efficacy was assessed.

SMILES | Phytotoxicity against Soybean (soybean) | Herbicide efficacy against digitaria ciliaris (Digitaria ciliaris) | score as phytotoxicity (soybean; soybean, greenhouse 7 days) | score as herbicide efficacy (Digitaria ciliaris; Digitaria ciliaris, greenhouse 7 days) | score as herbicide efficacy (Echinochloa crus-galli) | score as herbicide efficacy (Leptochloa chinensis)
Cn1c(C(F)(F)F)cc(=O)n(-c2cc(Oc3cccnc3OCC(=O)Oc3ccccc3)c(Cl)cc2F)c1=O [Compound (A), reference compound] | 10 (100% of phytotoxicity) | 10 (100% of herbicide efficacy) |  |  |  | 
CCOC(=O)COc1ncccc1Oc1cc(NC(=O)COc2ncccc2Oc2cc(-n3c(=O)cc(C(F)(F)F)n(C)c3=O)c(F)cc2Cl)c(F)cc1Cl [Present compound] | 1 (10% to 19% of phytotoxicity) | 10 (100% of herbicide efficacy) | 2 (20% to 29% of phytotoxicity) | 9 (90% to 99% of herbicide efficacy) | 9 (90% to 99% of herbicide efficacy) | 10 (100% of herbicide efficacy)
